# Test results from PMC7260718, “Novel routes towards bioplastics from plants: elucidation of the methylperillate biosynthesis pathway from Salvia dorisiana trichomes” (Journal of Experimental Botany, 2020).
# Tests used:
# SdSaS = molecular target: T1, SdSaS (Salvia dorisiana, UniProt A0A6G5RTE6); assay: in vitro terpene synthase assay, GC-MS; type: cell-based; details: product sabinene; conditions by reference to earlier study
# T1 construct: gene SaS; plastid targeting signal removed, pCDF-duet, E. coli
# T1 sequence (A0A6G5RTE6 1-538): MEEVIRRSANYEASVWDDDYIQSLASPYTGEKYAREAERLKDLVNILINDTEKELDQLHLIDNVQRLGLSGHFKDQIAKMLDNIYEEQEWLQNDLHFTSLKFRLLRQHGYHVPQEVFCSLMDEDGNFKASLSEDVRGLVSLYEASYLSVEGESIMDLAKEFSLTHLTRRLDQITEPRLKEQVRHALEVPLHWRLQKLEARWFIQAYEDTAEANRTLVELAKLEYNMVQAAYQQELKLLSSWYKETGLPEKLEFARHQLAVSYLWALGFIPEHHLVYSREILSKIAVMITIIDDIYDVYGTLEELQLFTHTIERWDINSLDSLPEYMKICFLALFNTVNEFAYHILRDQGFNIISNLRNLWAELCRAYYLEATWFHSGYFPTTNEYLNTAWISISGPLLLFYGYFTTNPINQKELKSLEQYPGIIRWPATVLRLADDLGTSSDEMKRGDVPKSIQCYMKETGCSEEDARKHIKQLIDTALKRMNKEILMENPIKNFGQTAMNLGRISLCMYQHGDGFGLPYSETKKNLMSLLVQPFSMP
# SdPCS = molecular target: T2, SdPCS (Salvia dorisiana, UniProt A0A6G5RV47); assay: in vitro terpene synthase assay, GC-MS; type: cell-based; details: products alpha-pinene and camphene; conditions by reference to earlier study
# T2 construct: gene PCS; plastid targeting signal removed, pCDF-duet, E. coli
# T2 sequence (A0A6G5RV47 52-589): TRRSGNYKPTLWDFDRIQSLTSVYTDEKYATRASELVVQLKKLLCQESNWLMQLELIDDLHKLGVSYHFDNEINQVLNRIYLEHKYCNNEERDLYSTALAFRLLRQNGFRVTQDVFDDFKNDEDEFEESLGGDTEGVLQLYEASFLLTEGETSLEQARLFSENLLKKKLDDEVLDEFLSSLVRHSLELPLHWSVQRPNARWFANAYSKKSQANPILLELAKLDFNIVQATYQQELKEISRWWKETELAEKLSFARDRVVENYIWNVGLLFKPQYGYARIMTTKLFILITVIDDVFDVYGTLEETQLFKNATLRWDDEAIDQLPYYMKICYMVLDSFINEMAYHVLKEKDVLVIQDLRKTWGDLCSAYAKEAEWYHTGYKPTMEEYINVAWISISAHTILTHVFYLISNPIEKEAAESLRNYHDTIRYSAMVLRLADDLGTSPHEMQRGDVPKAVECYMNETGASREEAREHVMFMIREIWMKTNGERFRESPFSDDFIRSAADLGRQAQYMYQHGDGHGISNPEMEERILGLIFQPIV
# SdLiS = molecular target: T3, SdLiS (Salvia dorisiana, UniProt A0A6G5RUG7); assay: in vitro terpene synthase assay, GC-MS; type: cell-based; details: product linalool; conditions by reference to earlier study
# T3 construct: gene LiS; plastid targeting signal removed, pCDF-duet, E. coli
# T3 sequence (A0A6G5RUG7 55-582 limits assumed): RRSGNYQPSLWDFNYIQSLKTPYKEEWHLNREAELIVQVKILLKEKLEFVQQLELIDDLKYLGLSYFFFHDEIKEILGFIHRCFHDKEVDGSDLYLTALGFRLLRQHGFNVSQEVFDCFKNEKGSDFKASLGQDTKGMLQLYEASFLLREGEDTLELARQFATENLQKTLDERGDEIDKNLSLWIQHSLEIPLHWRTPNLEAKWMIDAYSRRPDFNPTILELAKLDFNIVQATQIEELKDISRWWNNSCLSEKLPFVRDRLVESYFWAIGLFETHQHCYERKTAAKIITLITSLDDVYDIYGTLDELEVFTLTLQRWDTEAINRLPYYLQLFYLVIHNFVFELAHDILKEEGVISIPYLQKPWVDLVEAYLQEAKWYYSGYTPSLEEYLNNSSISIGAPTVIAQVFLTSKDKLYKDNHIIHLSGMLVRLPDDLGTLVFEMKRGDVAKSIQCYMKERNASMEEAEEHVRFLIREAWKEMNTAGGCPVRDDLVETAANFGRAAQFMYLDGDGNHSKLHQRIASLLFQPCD
# SdEuS = molecular target: T4, SdEuS (Salvia dorisiana, UniProt A0A6G5RUA2); assay: in vitro terpene synthase assay, GC-MS; type: cell-based; details: product eucalyptol; conditions by reference to earlier study
# T4 construct: gene EuS; plastid targeting signal removed, pCDF-duet, E. coli
# T4 sequence (A0A6G5RUA2 55-578): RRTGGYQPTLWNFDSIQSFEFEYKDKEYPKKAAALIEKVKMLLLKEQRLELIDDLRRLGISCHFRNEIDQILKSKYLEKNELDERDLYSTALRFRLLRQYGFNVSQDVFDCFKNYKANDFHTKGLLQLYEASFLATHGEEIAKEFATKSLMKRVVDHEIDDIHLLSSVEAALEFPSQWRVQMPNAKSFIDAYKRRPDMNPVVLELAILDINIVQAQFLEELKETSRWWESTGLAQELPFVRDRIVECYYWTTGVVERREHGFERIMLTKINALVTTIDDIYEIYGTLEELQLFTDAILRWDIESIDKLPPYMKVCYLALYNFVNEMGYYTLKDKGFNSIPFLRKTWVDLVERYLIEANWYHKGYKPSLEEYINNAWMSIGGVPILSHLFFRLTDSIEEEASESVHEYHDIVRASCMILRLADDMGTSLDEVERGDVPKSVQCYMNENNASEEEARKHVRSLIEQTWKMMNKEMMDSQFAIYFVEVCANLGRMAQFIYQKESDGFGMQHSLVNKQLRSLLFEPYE
# SdPS = molecular target: T5, SdPS (Salvia dorisiana, UniProt A0A6G5RTD3); assay: in vitro terpene synthase assay, GC-MS; type: cell-based; details: product beta-pinene; conditions by reference to earlier study
# T5 construct: gene PS; plastid targeting signal removed, pCDF-duet, E. coli
# T5 sequence (A0A6G5RTD3 60-600): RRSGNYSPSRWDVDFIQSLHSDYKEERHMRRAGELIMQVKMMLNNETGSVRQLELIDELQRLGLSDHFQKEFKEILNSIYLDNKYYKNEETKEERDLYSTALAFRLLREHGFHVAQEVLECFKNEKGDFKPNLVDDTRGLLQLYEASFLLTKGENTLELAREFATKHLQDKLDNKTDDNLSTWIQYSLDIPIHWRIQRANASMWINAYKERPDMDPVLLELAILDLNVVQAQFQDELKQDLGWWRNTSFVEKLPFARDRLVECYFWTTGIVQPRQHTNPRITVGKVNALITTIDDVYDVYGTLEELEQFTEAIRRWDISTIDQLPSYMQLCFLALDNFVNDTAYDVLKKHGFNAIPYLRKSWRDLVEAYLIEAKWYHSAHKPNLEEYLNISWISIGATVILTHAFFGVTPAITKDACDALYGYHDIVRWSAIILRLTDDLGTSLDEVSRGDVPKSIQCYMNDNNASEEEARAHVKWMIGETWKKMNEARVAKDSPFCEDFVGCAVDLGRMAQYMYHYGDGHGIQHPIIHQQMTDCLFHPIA
# SdL7H = molecular target: T6, SdL7H (Salvia dorisiana, UniProt A0A6G5RTT4); assay: GC-MS of perillyl alcohol in culture extract; type: cell-based; details: yeast co-expressing limonene synthase, 30 °C, 96 h; also N. benthamiana with SdLS
# T6 construct: gene L7H; expressed in Saccharomyces cerevisiae (limonene-producing strain Sc-PftLS) from pTEF plasmid; also in Nicotiana benthamiana
# T6 sequence (A0A6G5RTT4 1-494): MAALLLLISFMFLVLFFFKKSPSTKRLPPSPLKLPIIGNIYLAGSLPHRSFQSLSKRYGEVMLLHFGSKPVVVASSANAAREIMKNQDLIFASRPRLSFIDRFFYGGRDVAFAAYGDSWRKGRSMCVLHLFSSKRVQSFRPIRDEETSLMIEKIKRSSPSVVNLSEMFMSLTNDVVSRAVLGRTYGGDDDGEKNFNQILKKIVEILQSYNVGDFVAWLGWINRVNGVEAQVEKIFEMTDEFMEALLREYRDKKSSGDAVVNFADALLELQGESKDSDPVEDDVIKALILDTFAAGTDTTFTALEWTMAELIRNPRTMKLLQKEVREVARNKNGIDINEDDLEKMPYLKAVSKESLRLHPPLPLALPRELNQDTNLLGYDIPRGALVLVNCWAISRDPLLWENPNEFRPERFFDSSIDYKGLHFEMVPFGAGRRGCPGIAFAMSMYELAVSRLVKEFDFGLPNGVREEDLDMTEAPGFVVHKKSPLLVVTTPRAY
# SdOMT9 = molecular target: T7, SdOMT9 (Salvia dorisiana, UniProt A0A6G5RTF7); assay: headspace GC-MS of methylperillate; details: N. benthamiana leaves co-infiltrated with perillic acid; minor activity
# T7 construct: gene OMT9; transient expression in Nicotiana benthamiana leaves
# T7 sequence (A0A6G5RTF7 1-344): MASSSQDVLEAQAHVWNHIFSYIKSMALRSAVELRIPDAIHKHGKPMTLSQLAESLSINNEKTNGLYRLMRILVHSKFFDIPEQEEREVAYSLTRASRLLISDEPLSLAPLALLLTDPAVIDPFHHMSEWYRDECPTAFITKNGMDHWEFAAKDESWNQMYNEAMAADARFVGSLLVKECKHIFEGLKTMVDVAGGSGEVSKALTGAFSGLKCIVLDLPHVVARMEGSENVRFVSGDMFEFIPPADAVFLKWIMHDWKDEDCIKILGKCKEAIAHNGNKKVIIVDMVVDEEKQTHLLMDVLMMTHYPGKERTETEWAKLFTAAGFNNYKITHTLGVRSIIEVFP
# SdPAOMT = molecular target: T8, SdPAOMT (Salvia dorisiana, UniProt A0A6G5RV57); assay: GC-MS of methyl ester product; type: biochemical; details: E. coli cell-free extract; 1 mM substrate, 1.28 mM SAM (from stocks), Tris-HCl pH 7.0, room temperature, 1 h
# T8 construct: gene PAOMT; full length, pCDF-duet, E. coli BL21(DE3) cell-free extract
# T8 sequence (A0A6G5RV57 1-359): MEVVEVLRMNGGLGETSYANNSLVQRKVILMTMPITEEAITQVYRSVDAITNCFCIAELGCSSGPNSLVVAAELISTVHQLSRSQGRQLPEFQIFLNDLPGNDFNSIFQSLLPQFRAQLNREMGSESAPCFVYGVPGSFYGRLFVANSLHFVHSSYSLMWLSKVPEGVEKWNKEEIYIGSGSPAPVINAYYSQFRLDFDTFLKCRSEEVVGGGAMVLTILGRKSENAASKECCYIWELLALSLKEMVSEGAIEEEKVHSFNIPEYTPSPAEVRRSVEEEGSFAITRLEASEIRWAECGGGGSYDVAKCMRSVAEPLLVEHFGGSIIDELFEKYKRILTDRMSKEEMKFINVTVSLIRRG
# SdOMT4 = molecular target: T9, SdOMT4 (Salvia dorisiana, UniProt A0A6G5RUB3); assay: headspace GC-MS of methylperillate; details: N. benthamiana leaves co-infiltrated with perillic acid; minor activity
# T9 construct: gene OMT4; transient expression in Nicotiana benthamiana leaves
# T9 sequence (A0A6G5RUB3 1-349): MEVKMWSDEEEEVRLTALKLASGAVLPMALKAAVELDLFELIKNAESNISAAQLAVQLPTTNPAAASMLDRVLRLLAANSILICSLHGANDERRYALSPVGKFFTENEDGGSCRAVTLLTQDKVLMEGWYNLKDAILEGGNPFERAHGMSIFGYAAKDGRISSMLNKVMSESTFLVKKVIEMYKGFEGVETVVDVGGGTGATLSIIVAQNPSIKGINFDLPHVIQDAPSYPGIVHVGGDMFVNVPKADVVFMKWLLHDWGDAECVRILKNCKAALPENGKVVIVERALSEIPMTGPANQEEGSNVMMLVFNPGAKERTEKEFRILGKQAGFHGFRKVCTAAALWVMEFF
# SdPOHDH = molecular target: T10, SdPOHDH (Salvia dorisiana, UniProt A0A6G5RUH8); assay: LC-MS of perillyl aldehyde markers; details: N. benthamiana leaves infiltrated with 400 µM perillyl alcohol, 4 h
# T10 construct: gene POHDH; transient expression in Nicotiana benthamiana leaves (pB7WG2)
# T10 sequence (A0A6G5RUH8 1-370): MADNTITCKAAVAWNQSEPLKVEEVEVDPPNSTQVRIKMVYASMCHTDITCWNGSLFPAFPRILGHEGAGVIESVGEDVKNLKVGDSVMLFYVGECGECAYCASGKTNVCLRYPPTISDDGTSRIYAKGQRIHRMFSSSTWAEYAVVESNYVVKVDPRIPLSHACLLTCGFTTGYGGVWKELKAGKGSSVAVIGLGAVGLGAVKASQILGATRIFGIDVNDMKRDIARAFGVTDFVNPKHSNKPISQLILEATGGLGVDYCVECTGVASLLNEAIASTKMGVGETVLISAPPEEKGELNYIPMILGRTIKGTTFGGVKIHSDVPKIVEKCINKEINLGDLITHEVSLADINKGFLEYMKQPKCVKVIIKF
structure (smiles),measurement,setting,value
CC(C)=CCC/C(C)=C/COP(=O)(O)OP(=O)(O)O [geranyl diphosphate],"in vitro terpene synthase assay, GC-MS",SdSaS,a sabinene synthase SdSaS
same,"in vitro terpene synthase assay, GC-MS",SdPCS,an α-pinene/camphene synthase SdPCS
same,"in vitro terpene synthase assay, GC-MS",SdLiS,a linalool synthase SdLiS
same,"in vitro terpene synthase assay, GC-MS",SdEuS,a eucalyptol synthase SdEuS
same,"in vitro terpene synthase assay, GC-MS",SdPS,"characterized by in vitro assays, including a β-pinene synthase SdPS"
C=C(C)[C@@H]1CC=C(C)CC1 [limonene],GC-MS of perillyl alcohol in culture extract,SdL7H,indicating that limonene is indeed used as a substrate
C=C(C)[C@@H]1CC=C(C(=O)O)CC1 [perillic acid],headspace GC-MS of methylperillate,SdOMT9,only SdOMT4 and SdOMT9 showed minor MePA formation
same,GC-MS of methyl ester product,SdPAOMT,"Cell-free extracts were tested with BA, SA, and PA as substrates, and SAM as methyl donor"
same,headspace GC-MS of methylperillate,SdOMT4,only SdOMT4 and SdOMT9 showed minor MePA formation
C=C(C)[C@@H]1CC=C(CO)CC1 [perillyl alcohol],LC-MS of perillyl aldehyde markers,SdPOHDH,SdPOHDH converted POH to PAldH
O=C(O)c1ccccc1O [salicylic acid],GC-MS of methyl ester product,SdPAOMT,Methylated products were detected for all three substrates
